Patent US5491172A, “N-acyl sulfamic acid esters (or thioesters), N-acyl sulfonamides, and N-sulfonyl carbamic acid esters (or thioesters) as hypercholesterolemic agents” (Warner-Lambert Company, priority 1994, dated 1996)
pIC50: −log10 of the molar value. Where a name gives a salt, the structure may show the parent alone.

Columns and labels:
[1] = in vivo screen APCC: blood cholesterol in rats fed overnight a high fat, high cholesterol (PCC) diet; details: male Sprague-Dawley rats, dosed at 4 PM, PCC diet with 0.5% cholic acid overnight, blood sampled 8 AM, dose not given
Excerpt: In one in vivo screen designated APCC, male Sprague-Dawley rats (200 to 225 g) were randomly divided into treatment groups and dosed at 4 PM with either vehicle (CMC/Tween) or suspensions of compounds in vehicle. The normal chow diet was then replaced with a high fat, high cholesterol diet (designated PCC) containing 0.5% cholic acid. The rats consumed this diet ad libitum during the night and were sacrificed at 8 AM to obtain blood samples for cholesterol analysis using standard procedures. Statistical differences between mean cholesterol values for the same vehicle were determined using analysis of variance followed by Fisher's least significant test.

[2] = biological target: acyl-CoA:cholesterol acyltransferase (ACAT); test: in vitro ACAT inhibition (LAI): radiolabeled cholesterol oleate formed from radiolabeled oleic acid in rat liver microsomes; assay type: biochemical; details: concentration required to inhibit enzyme activity by 50%
Procedure: The ability of representative compounds of the present invention to inhibit ACAT was measured using an in vitro test more fully described in Field FJ, Salone RG, Biochemica et Biophysica, 1982;712:557-570. The test assesses the ability of a test compound to inhibit the acylation of cholesterol by oleic acid by measuring the amount of radiolabeled cholesterol oleate formed from radiolabeled oleic acid in a tissue preparation containing rat liver microsomes.

Row | Compound | pIC50 [2] | pIC50 ([2]; sodium salt) | % Change (mg/dl) in cholesterol [1] | % Change (mg/dl) in cholesterol ([1]; sodium salt) [%]
1 | CC(C)c1cccc(C(C)C)c1OS(=O)(=O)NC(=O)[C@@H]1C[C@H]1c1ccccc1 (relative stereo) [Example 15, sulfamic acid trans-[(2-phenylcyclopropyl)carbonyl]-2,6-bis(1-methylethyl)phenyl ester] |  |  | -14% | 
2 | CC(C)c1cccc(C(C)C)c1OS(=O)(=O)NC(=O)CC12CC3CC(CC(C3)C1)C2 [Example 4, sulfamic acid[adamantaneacetyl]-2,6-bis[1-methylethyl]phenyl ester] | 4.89 |  | -47% | 
3 | CC(C)c1cc(C(C)C)c(CC(=O)NS(=O)(=O)Oc2c(C(C)C)cccc2C(C)C)c(C(C)C)c1 [Example 6, sulfamic acid[[2,4,6-tris(1-methylethyl)phenyl]acetyl]-2,6-bis(1-methylethyl)phenylester sodium salt] |  |  |  | -75
4 | CC(C)c1cc(C(C)C)c(CC(=O)NS(=O)(=O)Oc2c(C(C)C)cc(C(C)C)cc2C(C)C)c(C(C)C)c1 [Example 8, sulfamic acid[[2,4,6-tris(1-methylethyl)phenyl]acetyl]-2,4,6-tris(1-methylethyl)phenyl ester] | 4.68 |  | -66% | 
5 | CCCCCCCCCC(=O)NS(=O)(=O)Oc1c(C(C)C)cccc1C(C)C [Example 10, sulfamic acid (decanoyl)-2,6-bis(1-methylethyl)phenyl ester] |  |  | -26% | 
6 | CCCCCCCCCCCC(=O)NS(=O)(=O)Oc1c(C(C)C)cccc1C(C)C [Example 11, sulfamic acid(dodecanoyl)-2,6-bis(1-methylethyl)phenyl ester] | < 5.00 |  | -8% | 
7 | CC(C)c1cccc(C(C)C)c1OS(=O)(=O)NC(=O)C12CC3CC(CC(C3)C1)C2 [Example 12] |  |  | -5% | 
8 | CC(C)c1cccc(C(C)C)c1OS(=O)(=O)NC(=O)CC(c1ccccc1)c1ccccc1 [Example 13, sulfamic acid(1-oxo-3,3-diphenylpropyl)-2,6-bis(1-methylethyl)phenyl ester] | 4.60 |  | -31% | 
9 | CC(C)c1cccc(C(C)C)c1OS(=O)(=O)NC(=O)C(=O)c1ccccc1 [Example 22, sulfamic acid(oxophenylacetyl)-2,6-bis(1-methylethyl)phenyl ester] | 4.30 |  | -23% | 
10 | CC(C)c1cccc(C(C)C)c1OS(=O)(=O)NC(=O)Cc1ccccc1C(F)(F)F [Example 23, sulfamic acid[2-trifluoromethylphenyl(acetyl)]-2,6-bis(1-methylethyl)phenyl ester] | 4.92 |  | -19% | 
11 | CC(C)c1cccc(C(C)C)c1OS(=O)(=O)NC(=O)C(C)c1ccccc1 (stereo not shown) [Example 24, sulfamic acid(1-oxo-2-phenylpropyl)-2,6-bis(1-methylethyl)phenyl ester] | 4.59 |  | -24% | 
12 | CC(C)c1cccc(C(C)C)c1OS(=O)(=O)NC(=O)C(c1ccccc1)C1CCCC1 (stereo not shown) [Example 25, sulfamic acid(cyclopentylphenylacetyl)-2,6-bis(1-methylethyl)phenyl ester] | 5.14 |  | -71% | 
13 | CC(C)c1cccc(C(C)C)c1OS(=O)(=O)NC(=O)CC1CCCCC1 [Example 26, sulfamic acid(cyclohexylacetyl)-2,6-bis(1-methylethyl)phenyl ester] | 4.55 |  | -26% | 
14 | CC(C)c1cccc(C(C)C)c1OS(=O)(=O)NC(=O)C(c1ccccc1)c1ccccc1 [Example 27, sulfamic acid(diphenylacetyl)-2,6-bis(1-methylethyl)phenyl ester] | 4.92 |  | -72% | 
15 | CC(C)c1cccc(C(C)C)c1OS(=O)(=O)NC(=O)C(c1ccccc1)(c1ccccc1)c1ccccc1 [Example 28, sulfamic acid(triphenylacetyl)-2,6-bis(1-methylethyl)phenyl ester] | 5.22 |  | -30% | 
16 | CC(C)c1cccc(C(C)C)c1OS(=O)(=O)NC(=O)C1CCc2ccccc2C1 (stereo not shown) [Example 29, sulfamic acid[(1,2,3,4-tetrahydro-2-naphthyl)carbonyl]-2,6-bis(1-methylethyl)phenylester] | 4.82 |  | -9% | 
17 | CC(C)c1cccc(C(C)C)c1OS(=O)(=O)NC(=O)C1(c2ccccc2)CCCC1 [Example 30, sulfamic acid[(1-phenylcyclopentyl)carbonyl]-2,6-bis(1-methylethyl)phenyl ester] | 5.39 |  | -40% | 
18 | CCC(C)C(C(=O)NS(=O)(=O)Oc1c(C(C)C)cccc1C(C)C)c1ccccc1 (stereo not shown) [Example 31, sulfamic acid(3-methyl-1-oxo-2-phenylpentyl)-2,6-bis(1-methylethyl)phenyl ester] | 5.48 |  | -30% | 
19 | CCC(C(=O)NS(=O)(=O)Oc1c(C(C)C)cccc1C(C)C)c1ccccc1 (stereo not shown) [Example 32, sulfamic acid(1-oxo-2-phenylbutyl)-2,6-bis(1-methylethyl)phenyl ester] | 5.05 |  | -48% | 
20 | CC(C)c1cccc(C(C)C)c1OS(=O)(=O)NC(=O)C(c1ccccc1)C1CCCCC1 (stereo not shown) [Example 33, sulfamic acid(cyclohexylphenylacetyl)-2,6-bis(1-methylethyl)phenyl ester] | 5.03 |  | -63% | 
21 | CC(C)c1cccc(C(C)C)c1OS(=O)(=O)NC(=O)C(C)(c1ccccc1)c1ccccc1 [Example 34, sulfamic acid(1-oxo-2,2-diphenylpropyl)-2,6-bis(1-methylethyl)phenyl ester] | 5.11 |  | -67% | 
22 | CC(C)c1cccc(C(C)C)c1OS(=O)(=O)NC(=O)C(c1ccc(Cl)cc1)c1ccc(Cl)cc1 [Example 35, sulfamic acid[bis-(4-chlorophenyl)acetyl]-2,6-bis(1-methylethyl)phenyl ester] | 5.05 |  | -9% | 

Now from value to compound, other results behind:

Row | pIC50 [2] | pIC50 ([2]; sodium salt) | Compound | % Change (mg/dl) in cholesterol [1] | % Change (mg/dl) in cholesterol ([1]; sodium salt) [%]
23 | 5.01 |  | CC(C)c1cccc(C(C)C)c1CC(=O)NS(=O)(=O)Oc1c(C(C)C)cccc1C(C)C [Example 1, sulfamic acid[[2,6-bis(1-methylethyl)phenyl]acetyl]-2,6-bis(1-methylethyl)phenyl ester] | -63% | 
24 |  | 4.92 | CC(C)c1cccc(C(C)C)c1CC(=O)NS(=O)(=O)Oc1c(C(C)C)cccc1C(C)C [Example 2, sulfamic acid[[2,6-bis(1-methylethyl)phenyl]acetyl]-2,6-bis(1-methylethyl)phenyl ester sodium salt] |  | -62
25 | 4.96 |  | CC(C)c1cc(C(C)C)c(OS(=O)(=O)NC(=O)Cc2c(C(C)C)cccc2C(C)C)c(C(C)C)c1 [Example 3, sulfamic acid[[2,6-bis(1-methylethyl)phenyl]acetyl]-2,4,6-tris(1-methylethyl)phenylester] | -79% | 
26 | 4.92 |  | CC(C)c1cc(C(C)C)c(CC(=O)NS(=O)(=O)Oc2c(C(C)C)cccc2C(C)C)c(C(C)C)c1 [Example 5, Sulfamic acid[[2,4,6-tris(1-methylethyl)phenyl]acetyl]-2,6-bis(1-methylethyl)phenylester] | -73% | 
27 | 4.33 |  | CC(C)c1cccc(C(C)C)c1OS(=O)(=O)NC(=O)Cc1ccccc1 [Example 7, sulfamic acid(phenylacetyl)-2,6-bis(1-methylethyl)phenyl ester] | -17% | 
28 | 4.48 |  | CC(C)c1cccc(C(C)C)c1OS(=O)(=O)NC(=O)Cc1c(Cl)cccc1Cl [Example 14, sulfamic acid[2,6-dichlorophenyl(acetyl)]-2,6-bis(1-methylethyl)phenyl ester] | -12% | 
29 | 4.44 |  | COc1ccc(OC)c(CC(=O)NS(=O)(=O)Oc2c(C(C)C)cccc2C(C)C)c1 [Example 16, sulfamic acid[2,5-dimethoxyphenyl(acetyl)]-2,6-bis(1-methylethyl)phenyl ester] | +10% | 
30 | < 4.30 |  | COc1cc(OC)c(CC(=O)NS(=O)(=O)Oc2c(C(C)C)cccc2C(C)C)c(OC)c1 [Example 17, sulfamic acid[2,4,6-trimethoxyphenyl(acetyl)]-2,6-bis(1-methylethyl)phenyl ester] | -40% | 
31 | 4.66 |  | Cc1cc(C)c(CC(=O)NS(=O)(=O)Oc2c(C(C)C)cccc2C(C)C)c(C)c1 [Example 18, sulfamic acid[2,4,6-trimethylphenyl(acetyl)]-2,6-bis(1-methylethyl)phenyl ester] | -47% | 
32 | < 4.30 |  | CC(C)c1cccc(C(C)C)c1OS(=O)(=O)NC(=O)Cc1cccs1 [Example 19, sulfamic acid[2-thiophenyl(acetyl)]-2,6-bis(1-methylethyl)phenyl ester] | -20% | 
33 | < 4.30 |  | CC(C)c1cccc(C(C)C)c1OS(=O)(=O)NC(=O)Cc1ccsc1 [Example 20, sulfamic acid[3-thiophenyl(acetyl)]-2,6-bis(1-methylethyl)phenyl ester] | -19% | 
34 | 4.26 |  | COc1ccccc1CC(=O)NS(=O)(=O)Oc1c(C(C)C)cccc1C(C)C [Example 21, sulfamic acid[2-methoxyphenyl(acetyl)]-2,6-bis(1-methylethyl)phenyl ester] | -16% | 
